Test results published in ChEMBL document CHEMBL4118100, “High Mobility Group Box-1 (HMGb1): Current Wisdom and Advancement as a Potential Drug Target” (J Med Chem, 2018).
Values belong to the compound of their own block, whether it stands above or below them. Residues, ends and D or L forms follow the SMILES beside them.

Tests used:
[1] = molecular target: T1, High mobility group protein B1 (Homo sapiens, UniProt P09429); experiment: Binding affinity to N-terminal 6His-tagged HMGB1 Bj region (88 to 181 residues) (unknown origin) expressed in Escherichia coli JM109 by SPR assay
T1 sequence (P09429 whole entry): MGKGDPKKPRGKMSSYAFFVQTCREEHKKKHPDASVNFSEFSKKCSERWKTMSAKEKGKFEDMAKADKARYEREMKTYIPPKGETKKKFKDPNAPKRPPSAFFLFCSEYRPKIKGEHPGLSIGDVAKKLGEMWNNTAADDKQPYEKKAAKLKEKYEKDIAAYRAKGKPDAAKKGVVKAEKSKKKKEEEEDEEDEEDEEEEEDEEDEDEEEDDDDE

[2] = molecular target: T1, High mobility group protein B1; experiment: Binding affinity to N-terminal 6His-tagged HMGB1 AI region (1 to 87 residues) (unknown origin) expressed in Escherichia coli JM109 by SPR assay
[3] = molecular target: T1, High mobility group protein B1; experiment: Binding affinity to recombinant HMGB1 box A (unknown origin)
[4] = molecular target: T1, High mobility group protein B1; experiment: Binding affinity to recombinant HMGB1 box B (unknown origin)
[5] = molecular target: Toll-like receptor 4/MD-2 (Homo sapiens, UniProt O00206+Q9Y6Y9); experiment: Binding affinity to recombinant human 10His-tagged TLR4 (24 to 631 residues)/recombinant human 10His-tagged MD2 (17 to 160 residues) after 5 mins by SPR assay; type: protein-complex assay
Chain of Toll-like receptor 4/MD-2 (O00206 whole entry, the tested form may be a part): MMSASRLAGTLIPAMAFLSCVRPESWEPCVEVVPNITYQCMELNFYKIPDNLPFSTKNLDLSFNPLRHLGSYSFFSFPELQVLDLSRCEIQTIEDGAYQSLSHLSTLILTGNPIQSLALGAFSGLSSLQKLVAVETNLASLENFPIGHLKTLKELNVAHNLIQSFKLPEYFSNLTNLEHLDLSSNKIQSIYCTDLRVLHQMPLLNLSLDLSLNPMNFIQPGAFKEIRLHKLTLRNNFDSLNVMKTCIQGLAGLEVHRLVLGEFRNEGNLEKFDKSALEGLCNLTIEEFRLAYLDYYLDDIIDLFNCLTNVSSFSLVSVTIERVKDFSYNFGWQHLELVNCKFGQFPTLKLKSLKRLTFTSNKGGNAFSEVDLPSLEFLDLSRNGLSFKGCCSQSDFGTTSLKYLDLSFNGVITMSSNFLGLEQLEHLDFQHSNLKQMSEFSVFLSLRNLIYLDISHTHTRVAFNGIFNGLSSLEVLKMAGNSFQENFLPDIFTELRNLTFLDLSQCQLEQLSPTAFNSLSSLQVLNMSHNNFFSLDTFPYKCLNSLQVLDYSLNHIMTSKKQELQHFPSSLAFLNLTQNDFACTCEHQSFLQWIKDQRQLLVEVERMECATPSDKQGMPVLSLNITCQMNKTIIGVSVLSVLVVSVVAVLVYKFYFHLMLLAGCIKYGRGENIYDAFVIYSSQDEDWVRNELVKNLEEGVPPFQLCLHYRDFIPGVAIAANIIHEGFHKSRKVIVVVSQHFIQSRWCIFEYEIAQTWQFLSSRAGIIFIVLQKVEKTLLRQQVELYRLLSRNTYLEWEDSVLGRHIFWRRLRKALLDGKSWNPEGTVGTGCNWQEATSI
Chain of Toll-like receptor 4/MD-2 (Q9Y6Y9 whole entry, the tested form may be a part): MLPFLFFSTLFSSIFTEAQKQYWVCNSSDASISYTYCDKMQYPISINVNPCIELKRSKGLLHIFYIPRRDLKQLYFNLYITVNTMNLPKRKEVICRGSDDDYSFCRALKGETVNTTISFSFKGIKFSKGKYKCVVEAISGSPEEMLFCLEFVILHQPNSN

[6] = molecular target: T1, High mobility group protein B1; experiment: Binding affinity to recombinant HMGB1 A box region (1 to 89 residues) (unknown origin) expressed Escherichia coli after 5 mins by fluorescence-based assay
[7] = molecular target: T1, High mobility group protein B1; experiment: Binding affinity to recombinant HMGB1 B box region (90 to 175 residues) (unknown origin) expressed Escherichia coli after 5 mins by fluorescence-based assay

Kd [1]: 0.024 µM
Kd [2]: 0.5 µM
SMILES: CN(Cc1cnc2nc(N)nc(N)c2n1)c1ccc(C(=O)N[C@@H](CCC(=O)O)C(=O)O)cc1 [METHOTREXATE]

SMILES: O=C(O)c1ccccc1O [SALICYLIC ACID]
Kd [3]: 1 to 10 µM
Kd [4]: 1 to 10 µM

Kd [5]: 5.95 µM
SMILES: CSCC[C@H](NC(=O)[C@H](C)N)C(=O)N[C@@H](C)C(=O)N[C@@H](CC(C)C)C(=O)N[C@@H](CC(=O)O)C(=O)N[C@@H](CS)C(=O)N[C@@H](Cc1ccccc1)C(=O)N[C@@H](CCCNC(=N)N)C(=O)N[C@@H](Cc1c[nH]c2ccccc12)C(=O)NCC(=O)N[C@@H](Cc1c[nH]c2ccccc12)C(=O)N[C@@H](CCCNC(=N)N)C(=O)N[C@@H](CCSC)C(=O)N[C@@H](Cc1c[nH]c2ccccc12)C(=O)N[C@@H](CS)C(=O)N[C@@H](CO)C(=O)N[C@@H](CO)C(=O)NCC(=O)O (H-AMALDCFRWGWRMWCSSG-OH)

Kd [6]: 103 µM
Kd [7]: 87 µM
SMILES: CC1(C)[C@@H](O[C@H]2O[C@H](C(=O)O)[C@@H](O)[C@H](O)[C@H]2O[C@@H]2O[C@H](C(=O)O)[C@@H](O)[C@H](O)[C@H]2O)CC[C@]2(C)[C@H]3C(=O)C=C4[C@@H]5C[C@@](C)(C(=O)O)CC[C@]5(C)CC[C@@]4(C)[C@]3(C)CC[C@@H]12 [GLYCYRRHIZIN]
